Assay results from US20240150377A1, “MODULATORS OF CYSTIC FIBROSIS TRANSMEMBRANE CONDUCTANCE REGULATOR” (VERTEX PHARMACEUTICALS INCORPORATED, priority 2020, published 2024).
pEC50: −log10 of the molar value. Where “and” joins values, the source holds several entries; their conditions need not be identical. Equal entries are not always repeated. Where two headings read alike, the source gives them in different places.

How the values were obtained:
[1] = amide bond, 13-membered ring
CFTR = biological target: T1, CFTR (Homo sapiens, UniProt P13569, DEL508-508); assay: HBE assay: Ussing chamber assay of CFTR-mediated short-circuit currents; type: cell-based; details: for pEC50: read-out: HBE EC50
T1 construct: endogenous in cells; host or cells: primary human bronchial epithelial cells from CF subjects (F508del/MF-HBE), differentiated at air-liquid interface
How it was run: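 CFTR-mediated Isc (μA/cm²) equals the peak response to apical 20 μM forskolin minus the residual after a 20 μM each BPO/GlyH-101/CFTR inhibitor 172 cocktail, recorded in Ussing chambers at Vhold 0 mV, 37 °C, pH 7.4, with 30 μM apical amiloride. Cells were F508del/MF HBE cultures preincubated 18-24 h with corrector (concentration range or 10 μM) plus 1 μM ivacaftor in 20% human serum.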

[2] = Table 10, read-out: HBE Max activity (%)
[3] = Table 11, read-out: HBE Max Activity (%)

T1 sequence (P13569 with tags, fused parts or gaps DEL508-508): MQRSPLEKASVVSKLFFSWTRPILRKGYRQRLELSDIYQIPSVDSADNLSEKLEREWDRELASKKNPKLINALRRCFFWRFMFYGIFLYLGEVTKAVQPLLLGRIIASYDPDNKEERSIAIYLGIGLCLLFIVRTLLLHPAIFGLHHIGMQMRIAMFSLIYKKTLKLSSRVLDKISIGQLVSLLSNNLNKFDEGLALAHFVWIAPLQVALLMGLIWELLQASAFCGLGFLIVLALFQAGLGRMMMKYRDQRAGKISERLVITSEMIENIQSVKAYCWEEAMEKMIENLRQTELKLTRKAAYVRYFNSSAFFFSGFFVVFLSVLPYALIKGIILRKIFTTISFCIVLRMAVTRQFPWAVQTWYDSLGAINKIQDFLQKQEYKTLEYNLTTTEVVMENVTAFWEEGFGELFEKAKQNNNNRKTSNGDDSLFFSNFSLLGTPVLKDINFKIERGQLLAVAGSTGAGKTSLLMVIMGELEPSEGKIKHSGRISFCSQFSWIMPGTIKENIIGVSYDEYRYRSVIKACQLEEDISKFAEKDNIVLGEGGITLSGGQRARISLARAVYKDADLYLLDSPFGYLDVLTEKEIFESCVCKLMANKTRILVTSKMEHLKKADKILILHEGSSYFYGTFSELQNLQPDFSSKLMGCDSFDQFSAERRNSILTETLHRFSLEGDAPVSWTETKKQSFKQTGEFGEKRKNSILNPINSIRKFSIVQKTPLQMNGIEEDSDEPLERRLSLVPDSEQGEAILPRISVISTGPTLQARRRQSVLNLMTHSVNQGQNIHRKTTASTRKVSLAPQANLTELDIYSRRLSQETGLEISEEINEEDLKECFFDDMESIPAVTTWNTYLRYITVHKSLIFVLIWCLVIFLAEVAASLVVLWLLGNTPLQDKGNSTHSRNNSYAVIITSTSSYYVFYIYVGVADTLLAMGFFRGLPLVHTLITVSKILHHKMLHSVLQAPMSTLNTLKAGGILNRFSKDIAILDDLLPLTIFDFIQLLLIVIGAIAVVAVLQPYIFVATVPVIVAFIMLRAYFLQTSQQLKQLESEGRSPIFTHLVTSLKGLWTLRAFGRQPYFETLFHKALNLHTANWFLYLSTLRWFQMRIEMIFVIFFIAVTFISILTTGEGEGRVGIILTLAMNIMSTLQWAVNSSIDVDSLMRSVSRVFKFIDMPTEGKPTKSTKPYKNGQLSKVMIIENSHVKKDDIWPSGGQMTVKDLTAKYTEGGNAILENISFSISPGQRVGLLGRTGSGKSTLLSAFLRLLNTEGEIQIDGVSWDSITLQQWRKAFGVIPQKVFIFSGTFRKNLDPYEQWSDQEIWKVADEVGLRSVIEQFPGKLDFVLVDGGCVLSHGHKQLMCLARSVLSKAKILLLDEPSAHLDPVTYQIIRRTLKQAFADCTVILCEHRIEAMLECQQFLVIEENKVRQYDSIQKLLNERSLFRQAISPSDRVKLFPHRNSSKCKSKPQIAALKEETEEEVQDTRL

In the case of `Cc1cccc(C)c1-c1cc2nc(n1)NS(=O)(=O)c1cccc(c1)C(=O)N(CC1CCN(C(=O)OC(C)(C)C)CC1)[C@H](CC(C)(C)C)CO2`, the ring closure, yield after HPLC ([1]; from Cc1cccc(C)c1-c1cc(OC[C@@H](CC(C)(C)C)NCC2CCN(C(=O)OC(C)(C)C)CC2)nc(NS(=O)(=O)c2cccc(C(=O)O)c2)n1, CDMT/NMM, DMF, 25.0 °C, 3.5 h, 2 steps) was 25%.

With `Cc1cccc(C)c1-c1cc2nc(n1)NS(=O)(=O)c1cccc(c1)C(=O)N(CCc1ccc(Br)cn1)[C@H](CC(C)(C)C)CO2` the ring closure, yield after HPLC ([1]; from Cc1cccc(C)c1-c1cc(OC[C@@H](CC(C)(C)C)NCCc2ccc(Br)cn2)nc(NS(=O)(=O)c2cccc(C(=O)O)c2)n1, CDMT/NMM, DMF, 25.0 °C, 3.0 h, 2 steps) was 15%.

`Cc1cccc(C)c1-c1cc2nc(n1)NS(=O)(=O)c1cccc(c1)C(=O)N(CCc1cccc(F)n1)[C@H](CC(C)(C)C)CO2` showed a ring closure, yield after HPLC ([1]; from Cc1cccc(C)c1-c1cc(OC[C@@H](CC(C)(C)C)NCCc2cccc(F)n2)nc(NS(=O)(=O)c2cccc(C(=O)O)c2)n1, CDMT/NMM, DMF, 25.0 °C, 3.0 h, 2 steps) of 6%.

`Cc1cccc(C)c1-c1cc2nc(n1)NS(=O)(=O)c1cccc(c1)C(=O)N(C[C@H]1COC(C)(C)O1)[C@H](CC(C)C)CO2` gave a ring closure, yield after HPLC ([1]; from Cc1cccc(C)c1-c1cc(OC[C@@H](CC(C)C)NC[C@H]2COC(C)(C)O2)nc(NS(=O)(=O)c2cccc(C(=O)O)c2)n1, HATU/DIEA, DMF, 26.2 mM, 25.0 °C, 2.0 h, 2 steps) of 12%.

In the case of `Cc1cccc(C)c1-c1cc2nc(n1)NS(=O)(=O)c1cccc(c1)C(=O)N(Cc1ccc(F)nc1)[C@H](CC(C)(C)C)CO2`, the ring closure, yield after HPLC ([1]; from Cc1cccc(C)c1-c1cc(OC[C@@H](CC(C)(C)C)NCc2ccc(F)nc2)nc(NS(=O)(=O)c2cccc(C(=O)O)c2)n1, CDMT/NMM, DMF, 25.0 °C, 5.0 h, 2 steps) was 34%.

Work on `Cc1cccc(C)c1-c1cc2nc(n1)NS(=O)(=O)c1cccc(c1)C(=O)N(Cc1ccc(I)cc1)[C@H](CC(C)(C)C)CO2` yielded a ring closure, yield after HPLC ([1]; from Cc1cccc(C)c1-c1cc(OC[C@@H](CC(C)(C)C)NCc2ccc(I)cc2)nc(NS(=O)(=O)c2cccc(C(=O)O)c2)n1, HATU/DIEA, DMF, 26.1 mM, 15.0 h) of 32%.

With `Cc1cccc(C)c1-c1cc2nc(n1)NS(=O)(=O)c1cccc(c1)C(=O)N(Cc1ccccn1)[C@H](CC(C)(C)C)CO2` the ring closure, yield after HPLC ([1]; from Cc1cccc(C)c1-c1cc(OC[C@@H](CC(C)(C)C)NCc2ccccn2)nc(NS(=O)(=O)c2cccc(C(=O)O)c2)n1, HATU/TEA, DMF, 20.2 mM, 16.0 h) was 41%.

`Cc1cccc(C)c1-c1cc2nc(n1)NS(=O)(=O)c1cccc(c1)C(=O)N(Cc1cncc(N(C)C3CCC3)n1)[C@@H]1CN(C(=O)OC(C)(C)C)C[C@H]1O2` gave a ring closure, yield after HPLC ([1]; from Cc1cccc(C)c1-c1cc(O[C@@H]2CN(C(=O)OC(C)(C)C)C[C@H]2NCc2cncc(N(C)C3CCC3)n2)nc(NS(=O)(=O)c2cccc(C(=O)O)c2)n1, CDMT/NMM, DMF, 24.3 mM, 15.1 h) of 48%.

In the case of `Cc1cccc(C)c1-c1cc2nc(n1)NS(=O)(=O)c1cccc(c1)C(=O)N(Cc1cncc(N3CCC[C@H]3C)n1)C(C1CC(C)(C)C1)CO2` (stereo partly drawn), the ring closure, yield after HPLC ([1]; from Cc1cccc(C)c1-c1cc(OCC(NCc2cncc(N3CCC[C@H]3C)n2)C2CC(C)(C)C2)nc(NS(=O)(=O)c2cccc(C(=O)O)c2)n1, CDMT/NMM, DMF, 12.7 mM, 16.5 h) was 18% and 17%.

Compound `Cc1cccc(C)c1-c1cc2nc(n1)NS(=N)(=O)c1cccc(c1)C(=O)N(Cc1ncc(N3CC(C)(C)C3)cn1)[C@H](CC(C)(C)C)CO2` (single isomer, unassigned; isomer a) has a ring closure, yield after HPLC ([1]; from Cc1cccc(C)c1-c1cc(OC[C@@H](CC(C)(C)C)NCc2ncc(N3CC(C)(C)C3)cn2)nc(NS(=N)(=O)c2cccc(C(=O)O)c2)n1, CDMT/NMM, DMF, 21.8 mM, 14.0 h) of 9%.

Compound `Cc1cccc(C)c1-c1cc2nc(n1)N=S(N)(=O)c1cccc(c1)C(=O)N(Cc1ncc(N3CC(C)(C)C3)cn1)[C@H](CC(C)(C)C)CO2` (single isomer, unassigned; isomer b) has a ring closure, yield after HPLC ([1]; from 3-[[[4-[(2R)-2-[[5-(3,3-dimethylazetidin-1-yl)pyrimidin-2-yl]methylamino]-4,4-dimethyl-pentoxy]-6-(2,6-dimethylphenyl)pyrimidin-2-yl]amino]sulfonimidoyl]benzoic acid (hydrochloride salt) isomer B, CDMT/NMM, DMF, 18.4 mM) of 4%.

With `Cc1cccc(C)c1-c1cc2nc(n1)NS(=O)(=O)c1cccc(c1)C(=O)N(Cc1ccc(N3CCOCC3)cn1)[C@H](CC1CC3(CCC3)C1)CO2` [Compound 3, (11R)-6-(2,6-Dimethylphenyl)-12-[(5-morpholino-2-pyridyl)methyl]-2,2-dioxo-11-(spiro[3.3]heptan-2-ylmethyl)-9-oxa-2λ^6-thia-3,5,12,19-tetrazatricyclo[12.3.1.14,8]nonadeca-1(18),4(19),5,7,14,16-hexaen-13-one] the pEC50 (CFTR; Table 10) was greater than 6.00, the Emax (CFTR; [2]) was greater than 60% and the ring closure, yield after HPLC ([1]; from Cc1cccc(C)c1-c1cc(OC[C@@H](CC2CC3(CCC3)C2)NCc2ccc(N3CCOCC3)cn2)nc(NS(=O)(=O)c2cccc(C(=O)O)c2)n1, CDMT/NMM, DMF, 25.0 °C, 2.5 h, 2 steps) was 11%.

`Cc1cccc(C(C)C)c1-c1cc2nc(n1)NS(=O)(=O)c1cccc(c1)C(=O)N(Cc1ncc(N3CCOCC3)cn1)[C@H](CC(C)(C)C)CO2` [Compound 6, (11R)-11-(2,2-Dimethylpropyl)-6-[2-methyl-6-(propan-2-yl)phenyl]-12-{[5-(morpholin-4-yl)pyrimidin-2-yl]methyl}-9-oxa-2λ^6-thia-3,5,12,19-tetraazatricyclo[12.3.1.14,8]nonadeca-1(17),4(19),5,7,14(18),15-hexaene-2,2,13-trione] showed a pEC50 (CFTR; Table 11) greater than 6.00, an Emax (CFTR; [3]) greater than 60% and a ring closure, yield after HPLC ([1]; from Cc1cccc(C(C)C)c1-c1cc(OC[C@@H](CC(C)(C)C)NCc2ncc(N3CCOCC3)cn2)nc(NS(=O)(=O)c2cccc(C(=O)O)c2)n1, CDMT/NMM, DMF, 54.0 mM, 25.0 °C, 60.0 h, 2 steps) of 21%.

`Cc1cccc(OCc2ccccc2)c1-c1cc2nc(n1)NS(=O)(=O)c1cccc(c1)C(=O)N(Cc1ccc(N3CCOCC3)cn1)[C@H](CC(C)(C)C)CO2` [Compound 7, (11R)-6-(2-Benzyloxy-6-methyl-phenyl)-11-(2,2-dimethylpropyl)-12-[(5-morpholino-2-pyridyl)methyl]-2,2-dioxo-9-oxa-2λ^6-thia-3,5,12,19-tetrazatricyclo[12.3.1.14,8]nonadeca-1(18),4(19),5,7,14,16-hexaen-13-one] gave an activation at 10 µM (CFTR; Table 11, at 10 μM, read-out: HBE Activity at 10 μM (%)) greater than 60%, a pEC50 (CFTR; Table 11) greater than 6.00 and an Emax (CFTR; [3]) greater than 60%. The ring closure, yield after HPLC ([1]; from Cc1cccc(OCc2ccccc2)c1-c1cc(OC[C@@H](CC(C)(C)C)NCc2ccc(N3CCOCC3)cn2)nc(NS(=O)(=O)c2cccc(C(=O)O)c2)n1, HATU/TBTU/DMTMM/DIEA, DCM, 3.76 mM, 25.0 °C, 1.0 h) was 22%.

`Cc1cccc(C)c1-c1cc2nc(n1)NS(=O)(=O)c1cccc(c1)C(=O)N(Cc1ccc(OC3CCCC3)cn1)[C@H](CC(C)(C)C)CO2` [Compound 49, (11R)-12-[[5-(Cyclopentoxy)-2-pyridyl]methyl]-6-(2,6-dimethylphenyl)-11-(2,2-dimethylpropyl)-2,2-dioxo-9-oxa-2λ^6-thia-3,5,12,19-tetrazatricyclo[12.3.1.14,8]nonadeca-1(18),4(19),5,7,14,16-hexaen-13-one] gave a pEC50 (CFTR; Table 10) of 5.52 to 6.00, an Emax (CFTR; [2]) greater than 60% and a ring closure, yield after HPLC ([1]; from 3-[[4-[(2R)-2-[[5-(cyclopentoxy)-2-pyridyl]methylamino]-4,4-dimethyl-pentoxy]-6-(2,6-dimethylphenyl)pyrimidin-2-yl]sulfamoyl]benzoic acid (Dihydrochloride salt), HATU/DIEA, DMF, 28.0 mM, 25.0 °C) of 49%.

With `Cc1cc(C)nc(CN2C(=O)c3cccc(c3)S(=O)(=O)Nc3nc(cc(-c4c(C)cccc4C)n3)OC[C@H]2CC(C)(C)C)c1` [Compound 55, (11R)-6-(2,6-Dimethylphenyl)-11-(2,2-dimethylpropyl)-12-[(4,6-dimethylpyridin-2-yl)methyl]-9-oxa-2λ^6-thia-3,5,12,19-tetraazatricyclo[12.3.1.14,8]nonadeca-1(18),4,6,8(19),14,16-hexaene-2,2,13-trione] the pEC50 (CFTR; Table 11) was greater than 6.00, the Emax (CFTR; [3]) was greater than 60% and the ring closure, yield after HPLC ([1]; from 3-[[4-(2,6-dimethylphenyl)-6-[(2R)-2-[(4,6-dimethyl-2-pyridyl)methylamino]-4,4-dimethyl-pentoxy]pyrimidin-2-yl]sulfamoyl]benzoic acid (Dihydrochloride salt), CDMT/NMM, DMF, 42.2 mM, 25.0 °C) was 44%.

`Cc1cccc(C)c1-c1cc2nc(n1)NS(=O)(=O)c1cccc(c1)C(=O)N(Cc1ncc(N3CCOCC3)cc1N1CCOCC1)[C@H](CC(C)(C)C)CO2` [Compound 56, (11R)-6-(2,6-Dimethylphenyl)-11-(2,2-dimethylpropyl)-12-[(3,5-dimorpholino-2-pyridyl)methyl]-2,2-dioxo-9-oxa-2λ^6-thia-3,5,12,19-tetrazatricyclo[12.3.1.14,8]nonadeca-1(18),4(19),5,7,14,16-hexaen-13-one] gave a pEC50 (CFTR; Table 10) greater than 6.00, an Emax (CFTR; [2]) greater than 60% and a ring closure, yield after HPLC ([1]; from Cc1cccc(C)c1-c1cc(OC[C@@H](CC(C)(C)C)NCc2ncc(N3CCOCC3)cc2N2CCOCC2)nc(NS(=O)(=O)c2cccc(C(=O)O)c2)n1, CDMT/NMM, DMF, 25.0 °C, 2.5 h, 2 steps) of 22%.

With `Cc1cc(N2CCOCC2)cnc1CN1C(=O)c2cccc(c2)S(=O)(=O)Nc2nc(cc(-c3c(C)cccc3C)n2)OC[C@H]1CC(C)(C)C` [Compound 57, (11R)-6-(2,6-Dimethylphenyl)-11-(2,2-dimethylpropyl)-12-[(3-methyl-5-morpholino-2-pyridyl)methyl]-2,2-dioxo-9-oxa-2λ^6-thia-3,5,12,19-tetrazatricyclo[12.3.1.14,8]nonadeca-1(18),4(19),5,7,14,16-hexaen-13-one] the pEC50 (CFTR; Table 10) was greater than 6.00, the Emax (CFTR; [2]) was greater than 60% and the ring closure, yield after HPLC ([1]; from Cc1cc(N2CCOCC2)cnc1CN[C@@H](COc1cc(-c2c(C)cccc2C)nc(NS(=O)(=O)c2cccc(C(=O)O)c2)n1)CC(C)(C)C, CDMT/NMM, DMF, 25.0 °C, 3.5 h, 2 steps) was 19%.
